Test [1] concerns MTLn3 xenograft. The experiment in a line: Tumor growth inhibition in the MTLn3 xenograft model. The format is in vivo, rat. The conditions noted are these: 2 to 3 weeks oral dosing at 80 mg/kg once weekly. As for the experimental part:
Female Fischer rats obtained from Charles River Laboratories were used when they were ˜13-15 weeks old and weighed ˜150 grams. All animals were examined prior to the initiation of studies to ensure that they were healthy and acclimated to the laboratory environment. Autoclaved water and irradiated food were provided ad libitum, and the animals were maintained in a 12 hour light and dark cycle. MTLn3 cells were grown in RPMI 1640 supplemented with 10% heat-inactivated Fetal Bovine Serum (HI-FBS; GIBCO/Invitrogen, Carlsbad, Calif.) and 2 mM L-glutamine (GIBCO/Invitrogen) and maintained at 37° C. at 5% CO2. The MTLn3 cells were obtained from Hoffmann-La Roche Inc., Nutley, N.J. Approximately 1×10^6 cells/0.2mls/rat in PBS (Phosphate Buffered Saline) Phenol-red free, Ca^+2 and Mg^+2-free were implanted subcutaneously in the right mammary fat pad. The dose selected was 80 mg/kg, determined to be an efficacious dose in this animal model. Tumor growth inhibition in the MTLn3 xenograft model after 2 to 3 weeks of oral dosing at 80 mg/kg once weekly averaged 90% with 2/10 complete regressions. […] Concentrations of COMPOUND A in plasma and tumors were determined in the same three animals per time point. […] Peripheral blood mononuclear cells (PBMCs) were isolated, stimulated ex vivo with mitogen and analyzed by Western blot as described below.

The test system of test [2] is retinoblastoma protein (Rb) phosphorylation in HCT116 cells. Description: Rb phosphorylation in HCT116 cells by Western blot and ELISA. The format is cell-based, human. The conditions noted are these: HCT116, 20 hours, 0.1, 0.2 and 0.6 μM. As to the method: Cells were washed 3 times with cold PBS on ice and scraped from the flasks. All cells were collected in 15 ml tubes. Cells were pelleted by centrifugation and lysis buffer was added (1:1 PBS: 2× Tris-Glycine SDS Sample Buffer (Invitrogen, Carlsbad, Calif.) containing 5% 2-β mercaptoethanol). The volume of lysis buffer used was 5 ul per 1×10^6 cells. Samples were sonicated for 30 seconds on ice. Following sonication, samples were clarified by centrifugation at 16,000×g for 10 minutes at 4° C. and protein concentrations were determined using Non-Interfering Protein Assay Kit (Geno Technology Incorporated, Maplewood, Mo.). Proteins were denatured by boiling for 5 minutes and centrifuged as described above. […] For Western blotting, total Rb was detected using antibody from Pharmingen (BD Bioscience, San Diego, Calif.) at a dilution of 1:2000. The phosphorylation status of Rb at serine 780, serine 795 and serine 807/811 was detected with phosphospecific antibodies at dilutions of 1:1000 (Cell Signaling Technology, Beverly, Mass.). […]
HCT116 cells were treated for 20 hours at the IC50 (0.1 μM), IC90 (0.2 μM) and 3×IC90 (0.6 μM) concentrations for cell growth inhibition, as determined in a 5-day proliferation assay. Lysates were analyzed by Western blotting for Rb phosphorylation at serine 795 and serine 780 (FIG. 1). […]

Test [3] deals with retinoblastoma protein (Rb) phosphorylation in MTLn3 cells. Description: Rb phosphorylation in MTLn3 cells by Western blot. The format is cell-based, rat. The conditions noted are these: MTLn3, 20 hours, 0.17, 0.24 and 0.72 μM. As to the method:
Cells were washed 3 times with cold PBS on ice and scraped from the flasks. All cells were collected in 15 ml tubes. Cells were pelleted by centrifugation and lysis buffer was added (1:1 PBS: 2× Tris-Glycine SDS Sample Buffer (Invitrogen, Carlsbad, Calif.) containing 5% 2-β mercaptoethanol). The volume of lysis buffer used was 5 ul per 1×10^6 cells. Samples were sonicated for 30 seconds on ice. Following sonication, samples were clarified by centrifugation at 16,000×g for 10 minutes at 4° C. and protein concentrations were determined using Non-Interfering Protein Assay Kit (Geno Technology Incorporated, Maplewood, Mo.). Proteins were denatured by boiling for 5 minutes and centrifuged as described above. […] For Western blotting, total Rb was detected using antibody from Pharmingen (BD Bioscience, San Diego, Calif.) at a dilution of 1:2000. The phosphorylation status of Rb at serine 780, serine 795 and serine 807/811 was detected with phosphospecific antibodies at dilutions of 1:1000 (Cell Signaling Technology, Beverly, Mass.).
Lysates were analyzed by Western blotting for Rb phosphorylation using polyclonal antibodies prepared against a peptide corresponding to sequences surrounding phosphorylated serine 807/811 in human Rb (FIG. 3).

In test [4] the test system is HCT116 cells. Description: 5-day proliferation assay, cell growth inhibition. The format is cell-based. The conditions noted are these: Homo sapiens, HCT-116, 120 h; HCT116, 5-day proliferation assay.

Consider one compound from patent publication US20060269482A1 (priority 2005, published 2006).

Take `COc1ccc(F)c(F)c1C(=O)c1cnc(NC2CCN(S(C)(=O)=O)CC2)nc1N` [COMPOUND A, [4-amino-2-(1-methanesulfonylpiperidin-4-ylamino)pyrimidin-5-yl]-(2,3-difluoro-6-methoxyphenyl)methanone]: in test [1], the Tumor growth inhibition turned out to be 90% and the complete regressions is 2/10. In addition, the “Rb phosphorylation at serine 795, serine 780 (Western blot) and threonine 821 (ELISA)” value in test [2] is listed as “inhibition of phosphorylation at all three CDK phosphorylation sites in a concentration-dependent fashion”. Moreover, the “Rb phosphorylation at epitope recognized by anti-phospho-serine 807/811 antibody” value in test [3] was “inhibition of phosphorylation”. In test [4], the IC50 (usually the concentration that gives 50% inhibition) worked out at 100 nM and the 90% effect concentration (IC90) (as a rule, the concentration at which the effect reaches the 90% level) stood at 200 nM.
